In patent US9670261B2 (Sanofi, priority 2012, dated 2017):
≈ marks a conversion by molar mass, not a printed value. *1 amine or outer side, *2 acyl side, *3 side chain or, on linkers, in order; H or OH if unused. Where a SMILES comes first, the peptide text is derived from it. Side-chain parts run from the residue outwards. [ ]: non-standard residue; d: D form. The star is where a group is joined. γGlu = O=C(O)[C@H](CCC(=O)[*:2])N[*:1]; Stearoyl = CCCCCCCCCCCCCCCCCC(=O)*; Palmitoyl = CCCCCCCCCCCCCCCC(=O)*; Aib = CC(C)(N)C(=O)O; GABA = NCCCC(=O)O

Experiments:
human GLP-1 receptor = biological target: T1, human GLP-1 receptor (Homo sapiens, UniProt P43220); assay: cAMP response (HTRF) of HEK-293 cells stably expressing human GLP-1 receptor; assay type: cell-based; conditions: Table 7; cAMP formation; read-out: EC50 hGLP-1 R
T1 construct: expressed in transfected cells
T1 sequence (P43220 24-463): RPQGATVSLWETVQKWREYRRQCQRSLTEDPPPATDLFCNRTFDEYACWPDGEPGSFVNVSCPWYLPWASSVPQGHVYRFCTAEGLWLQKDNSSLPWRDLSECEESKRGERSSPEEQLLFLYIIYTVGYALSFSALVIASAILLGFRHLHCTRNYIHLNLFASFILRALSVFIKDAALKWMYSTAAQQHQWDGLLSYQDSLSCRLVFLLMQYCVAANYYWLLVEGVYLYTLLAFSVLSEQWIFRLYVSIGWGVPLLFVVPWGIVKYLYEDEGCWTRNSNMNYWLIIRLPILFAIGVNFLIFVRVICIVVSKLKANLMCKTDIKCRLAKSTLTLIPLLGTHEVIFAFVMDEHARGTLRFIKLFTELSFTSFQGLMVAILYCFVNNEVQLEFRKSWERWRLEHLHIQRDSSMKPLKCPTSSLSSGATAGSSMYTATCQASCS
In short: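 Intracellular cAMP is quantified by HTRF following a 30-minute room-temperature incubation of cell suspensions (400000 cells/ml) with test compound in HBSS, 20 mM HEPES, 0.1% BSA and 2 mM IBMX.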

human GIP receptor = biological target: T2, human GIP receptor (Homo sapiens, UniProt P48546); assay: cAMP response (HTRF) of HEK-293 cells stably expressing human GIP receptor; assay type: cell-based; conditions: Table 7; cAMP formation; read-out: EC50 hGIP R
T2 construct: expressed in transfected cells
T2 sequence (P48546 22-466): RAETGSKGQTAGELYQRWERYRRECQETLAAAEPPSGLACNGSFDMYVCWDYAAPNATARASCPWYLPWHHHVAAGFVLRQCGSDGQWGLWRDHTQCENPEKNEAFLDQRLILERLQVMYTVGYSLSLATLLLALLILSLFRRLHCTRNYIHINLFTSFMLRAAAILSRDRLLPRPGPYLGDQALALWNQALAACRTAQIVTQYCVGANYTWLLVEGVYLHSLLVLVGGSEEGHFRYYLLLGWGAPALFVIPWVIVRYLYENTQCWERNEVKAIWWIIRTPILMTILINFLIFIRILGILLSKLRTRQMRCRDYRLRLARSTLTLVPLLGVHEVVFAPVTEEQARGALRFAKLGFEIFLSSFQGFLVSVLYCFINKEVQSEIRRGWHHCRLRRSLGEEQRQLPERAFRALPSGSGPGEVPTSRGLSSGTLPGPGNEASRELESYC
Protocol: cAMP content of cells was determined using a kit from Cisbio Corp. (cat. no. 62AM4PEC) based on HTRF (Homogenous Time Resolved Fluorescence). For preparation, cells were split into T175 culture flasks and grown overnight to near confluency in medium (DMEM/10% FBS). Medium was then removed and cells washed with PBS lacking calcium and magnesium, followed by proteinase treatment with accutase (Sigma-Aldrich cat. no. A6964). Detached cells were washed and resuspended in assay buffer (1×HBSS; 20 mM HEPES, 0.1% BSA, 2 mM IBMX) and cellular density determined. They were then diluted to 400000 cells/ml and 25 μl-aliquots dispensed into the wells of 96-well plates. For measurement, 25 μl of test compound in assay buffer was added to the wells, followed by incubation for 30 minutes at room temperature.

[1] = Solubility testing in buffer (HPLC-UV)
[2] = Chemical stability in solution, 7 days at 25° C. (% remaining peptide); conditions: % remaining peptide after 7 days at 25° C.
Protocol: After that time course, the sample was centrifuged for 20 min at 4000 rpm and the supernatant was analysed with HPLC-UV. For determination of the amount of the remaining peptide, the peak areas of the target compound at t0 and t7 were compared, resulting in “% remaining peptide”, following the equation % remaining peptide=[(peak area peptide t7)×100]/peak area peptide t0.
The chemical stability is expressed as “% remaining peptide”.

female NMRI-mice [3] = assay: Gastric emptying and intestinal passage in mice; assay type: in vivo; conditions: 10 μg/kg s.c., versus vehicle control
Protocol: Female NMRI-mice of a body weight between 20 and 30 g were used. Mice were adapted to housing conditions for at least one week. Mice were overnight fasted, while water remained available all the time. On the study day, mice were weighed, single-caged and allowed access to 500 mg of feed for 30 min, while water was removed. At the end of the […], remaining feed was removed and weighed. Then, the test compound/reference compound or its vehicle in the control group was administered subcutaneously. 60 min later, to allow the compound to reach relevant plasma exposure, a coloured, non-caloric bolus was instilled via gavage into the stomach. After another 30 min, the animals were sacrificed and the stomach and the small intestine prepared. The filled stomach was weighed, emptied, carefully cleaned and dried and reweighed. The stomach content, calculated as weight of filled subtracted by the weight of emptied stomach, indicated the degree of gastric emptying. The small intestine was straightened without force and measured in length. Then the distance from the gastric beginning of the gut to the tip of the farthest traveled intestinal content bolus was measured. The intestinal passage was given as ratio in percent of the latter distance and the total length of the small intestine. […] Statistical analyses were performed with Everstat 6.0 by 1-way-ANOVA, followed by Dunnett's as post-hoc test. Dunnett's Test was applied to compare versus vehicle control. Differences were considered statistically significant at the p<0.05 level.

female NMRI-mice [4] = assay: Automated assessment of 22-hours feed intake in mice; assay type: in vivo; conditions: 0.1 mg/kg s.c.
Protocol: Female NMRI-mice of a body weight between 20 and 30 g were used. Mice were adapted to housing conditions for at least one week and for at least one day single-caged in the assessment equipment, when basal data were recorded simultaneously. On the study day, test product was administered subcutaneously close to the lights-off phase (12 h lights off) and assessment of feed consumption was directly started afterwards. Assessment included continued monitoring over 22 hours, while data are processed as mean over every 30 min. Repetition of this procedure over several days was possible. Restriction of assessment to 22 hours was for practical reasons to allow for reweighing of animals, refilling of feed and water and drug administration between procedures. Results could be assessed as cumulated data over 22 hours or differentiated to 30 min intervals. […] Statistical analyses were performed with Everstat 6.0 by two-way ANOVA on repeated measures and Dunnett's post-hoc analyses. Differences were considered statistically significant at the p<0.05 level. […] Lights-off phase (dark phase) started 4 hours later. […].

[5] = test system: female leptin-receptor deficient diabetic db/db mice; assay: Blood glucose and HbA1c in leptin-receptor deficient diabetic db/db mice (method 3); assay type: in vivo; conditions: single 100 μg/kg s.c., fed db/db mice
Description: Female BKS.Cg-m+/+Leprdb/J (db/db) and BKS.Cg-m+/+Leprdb/+(lean control) mice were obtained from Charles River Laboratories, Germany, at an age of 9-10 weeks. The animals were housed in groups in a specific pathogen-free barrier facility on a 12-h light/dark cycle with free access to water and rodent-standard chow. After 1 week of acclimatization, blood samples were drawn from the tail without anaesthesia and blood glucose (method: d-glucose hexokinase, hemolysate, AU640 Beckman Coulter) and HbA1c level (method: hemolysate, Cobas6000 c501, Roche Diagnostics, Germany) were determined. […] The volume of administration was 5 mL/kg. The animals had access to water and chow during the experiment, food consumption was determined at all time points of blood sampling. […] Blood sampling was performed by tail incision without anaesthesia. […] At the end of the study, blood samples (tail, no anaesthesia) were analyzed for glucose and HbA1c. […] Statistical analyses were performed with Everstat 6.0 by repeated measures two-way ANOVA and Dunnett's post-hoc analyses. Differences versus vehicle-treated db/db control mice were considered statistically significant at the p<0.05 level. […] At predefined time points, more blood samples were taken to measure blood glucose and generate the blood glucose profile over 24 h. […] Blood glucose and HbA1c were determined before start of treatment and at the end of the study after 4 weeks of treatment. […] Before treatment started, no significant differences in blood glucose levels could be detected between db/db groups, only the lean control animals had significant lower glucose levels. During the 4 weeks of treatment, glucose levels increased in the vehicle-treated db/db control group, indicating a worsening of the diabetic situation.

[6] = Pharmacokinetic testing in mice, s.c.; conditions: mouse, sc, 1 mg/kg
Protocol: Mice were dosed 1 mg/kg subcutaneously (s.c.). The mice were sacrified and blood samples were collected after 0.25, 0.5, 1, 2, 4, 8, 16 and 24 hours post application. Plasma samples were analyzed after protein precipitation via liquid chromatography mass spectrometry (LC/MS). PK parameters and half-life were calculated using WinonLin Version 5.2.1 (non-compartment model).

| Compound | EC50 (human GLP-1 receptor) | EC50 (human GIP receptor) | solubility at 2 h ([1]; buffer, pH 4.5) | solubility at 2 h ([1]; buffer, pH 7.4) | Stability (pH 4.5) [2] | Stability (pH 7.4) [2] | increase of remaining gastric contents (female NMRI-mice [3]) | reduction of intestinal passage (female NMRI-mice [3]) | reduction of feed intake after 22 hours (female NMRI-mice [4]) | blood glucose compared to db/db control mice, 24 h profile [5] | Cmax ([6]; in vivo) | half-life ([6]; in vivo) | solubility at 2 h ([1]; pH 4.5) | solubility at 2 h ([1]; pH 7.4) | Cmax ([6]; plasma) | half-life ([6]; plasma) |
| --- | --- | --- | --- | --- | --- | --- | --- | --- | --- | --- | --- | --- | --- | --- | --- | --- |
| CCCCCCCCCCCCCCCCCC(=O)NCCCC(=O)NCCCC[C@H](NC(=O)[C@H](CCC(N)=O)NC(=O)[C@@H](NC(=O)[C@H](CO)NC(=O)[C@H](CC(C)C)NC(=O)[C@H](CC(=O)O)NC(=O)[C@H](CO)NC(=O)[C@@H](NC(=O)[C@H](Cc1ccccc1)NC(=O)[C@@H](NC(=O)CNC(=O)[C@H](CCC(=O)O)NC(=O)C(C)(C)NC(=O)[C@@H](N)Cc1ccc(O)cc1)[C@@H](C)O)[C@@H](C)O)[C@@H](C)CC)C(=O)N[C@@H](CCC(=O)O)C(=O)N[C@@H](CCCCN)C(=O)N[C@@H](CCCNC(=N)N)C(=O)N[C@@H](C)C(=O)N[C@@H](C)C(=O)NC(C)(C)C(=O)N[C@@H](CCC(=O)O)C(=O)N[C@@H](Cc1ccccc1)C(=O)N[C@H](C(=O)N[C@@H](CCC(=O)O)C(=O)N[C@@H](Cc1c[nH]c2ccccc12)C(=O)N[C@@H](CC(C)C)C(=O)N[C@@H](CCCCN)C(=O)N[C@@H](CC(N)=O)C(=O)N[C@H](C(=O)NCC(=O)N1CCC[C@H]1C(=O)N[C@@H](CO)C(=O)N[C@@H](CO)C(=O)NCC(=O)N[C@@H](C)C(=O)N1CCC[C@H]1C(=O)N1CCC[C@H]1C(=O)N1CCC[C@H]1C(=O)N[C@@H](CO)C(N)=O)[C@@H](C)O)[C@@H](C)CC [SEQ ID NO: 17, Y-Aib-E-G-T-F-T-S-D-L-S-I-Q-K(GABA-x70)-E-K-R-A-A-Aib-E-F-I-E-W-L-K-N-T-G-P-S-S-G-A-P-P-P-S-NH2] (H-Y[Aib]EGTFTSDLSIQK([GABA-Stearoyl])EKRAA[Aib]EFIEWLKNTGPSSGAPPPS-NH2) | 8.7 pM | 9.6 pM | 970 µg/mL (≈ 213 µM) | > 1000 µg/mL | 100.0% | 100.0% |  |  |  |  |  |  |  |  |  |  |
| CCCCCCCCCCCCCCCC(=O)N[C@@H](CCC(=O)NCCCC[C@H](NC(=O)[C@H](CCC(N)=O)NC(=O)[C@@H](NC(=O)[C@H](CO)NC(=O)[C@H](CC(C)C)NC(=O)[C@H](CC(=O)O)NC(=O)[C@H](CO)NC(=O)[C@@H](NC(=O)[C@H](Cc1ccccc1)NC(=O)[C@@H](NC(=O)CNC(=O)[C@H](CCC(N)=O)NC(=O)C(C)(C)NC(=O)[C@@H](N)Cc1ccc(O)cc1)[C@@H](C)O)[C@@H](C)O)[C@@H](C)CC)C(=O)N[C@@H](CC(=O)O)C(=O)N[C@@H](CO)C(=O)N[C@@H](CCCNC(=N)N)C(=O)N[C@@H](C)C(=O)N[C@@H](C)C(=O)N[C@@H](CCC(N)=O)C(=O)N[C@@H](CC(=O)O)C(=O)N[C@@H](Cc1ccccc1)C(=O)N[C@H](C(=O)N[C@@H](CCC(=O)O)C(=O)N[C@@H](Cc1c[nH]c2ccccc12)C(=O)N[C@@H](CC(C)C)C(=O)N[C@@H](CCCCN)C(=O)N[C@@H](CC(N)=O)C(=O)NCC(=O)NCC(=O)N1CCC[C@H]1C(=O)N[C@@H](CO)C(=O)N[C@@H](CO)C(=O)NCC(=O)N[C@@H](C)C(=O)N1CCC[C@H]1C(=O)N1CCC[C@H]1C(=O)N1CCC[C@H]1C(=O)N[C@@H](CO)C(N)=O)[C@@H](C)CC)C(=O)O [SEQ ID NO: 13, Y-Aib-Q-G-T-F-T-S-D-L-S-I-Q-K(γE-x53)-DSRAAQDFIEWLKNGGPSSGAPPPS-NH2] (H-Y[Aib]QGTFTSDLSIQK([γGlu-Palmitoyl])DSRAAQDFIEWLKNGGPSSGAPPPS-NH2) |  |  |  |  | 86.8% | 95.9% | 40% | 60% | 93% | significant decrease in blood glucose | 3790 ng/mL | 3.1 h | 268 µg/mL (≈ 59.4 µM) | > 1000 µg/mL |  |  |
| CCCCCCCCCCCCCCCC(=O)N[C@@H](CCC(=O)NCCCC[C@H](NC(=O)[C@H](CCC(N)=O)NC(=O)[C@@H](NC(=O)[C@H](CO)NC(=O)[C@H](CC(C)C)NC(=O)[C@H](CC(=O)O)NC(=O)[C@H](CO)NC(=O)[C@@H](NC(=O)[C@H](Cc1ccccc1)NC(=O)[C@@H](NC(=O)CNC(=O)[C@H](CCC(N)=O)NC(=O)C(C)(C)NC(=O)[C@@H](N)Cc1ccc(O)cc1)[C@@H](C)O)[C@@H](C)O)[C@@H](C)CC)C(=O)N[C@@H](CCC(=O)O)C(=O)N[C@@H](CO)C(=O)N[C@@H](CCCNC(=N)N)C(=O)N[C@@H](C)C(=O)N[C@@H](C)C(=O)N[C@@H](CCC(N)=O)C(=O)N[C@@H](CC(=O)O)C(=O)N[C@@H](Cc1ccccc1)C(=O)N[C@H](C(=O)N[C@@H](CCC(=O)O)C(=O)N[C@@H](Cc1c[nH]c2ccccc12)C(=O)N[C@@H](CC(C)C)C(=O)N[C@@H](CCCCN)C(=O)N[C@@H](C)C(=O)NCC(=O)NCC(=O)N1CCC[C@H]1C(=O)N[C@@H](CO)C(=O)N[C@@H](CO)C(=O)NCC(=O)N[C@@H](C)C(=O)N1CCC[C@H]1C(=O)N1CCC[C@H]1C(=O)N1CCC[C@H]1C(=O)N[C@@H](CO)C(N)=O)[C@@H](C)CC)C(=O)O [SEQ ID NO: 32, Y-Aib-Q-G-T-F-T-S-D-L-S-I-Q-K(γE-x53)-ESRAAQDFIEWLKAGGPSSGAPPPS-NH2] (H-Y[Aib]QGTFTSDLSIQK([γGlu-Palmitoyl])ESRAAQDFIEWLKAGGPSSGAPPPS-NH2) | 8.4 pM | 7.1 pM |  |  |  |  |  |  |  |  |  |  |  |  | 5520 ng/mL | 2.7 h |
